12 compounds from ChEMBL document CHEMBL1817594, “Multi-target strategy to address Alzheimer's disease: design, synthesis and biological evaluation of new tacrine-based dimers” (Eur J Med Chem, 2011) can be followed below.

In assay [1] the target is T1, Beta-secretase 1 (Homo sapiens, UniProt P56817). The assay is described as follows: Inhibition of BACE1 expressed in baculovirus assessed as inhibition of amyloid beta-42 production at 10 uM after 60 mins by spectrofluorometric assay.
Assay [2] deals with T2, Acetylcholinesterase (Homo sapiens, UniProt P22303).
Description: Inhibition of human serum recombinant AChE using acetylthiocholine iodide as substrate preincubated for 20 mins by Ellman's method
The next assay has as its target Cholinesterase (Homo sapiens, UniProt P06276).
Assay [3] has as its target T1, Beta-secretase 1.
Description: Inhibition of BACE1 expressed in baculovirus assessed as inhibition of amyloid beta-42 production after 60 mins by spectrofluorometric assay
The target of assay [4] is T2, Acetylcholinesterase. The assay is described as follows: Mixed-type inhibition of human AChE assessed as hydrolysis of acetylthiocholine by Lineweaver-Burk plot analysis.

T2 sequence (P22303 whole entry): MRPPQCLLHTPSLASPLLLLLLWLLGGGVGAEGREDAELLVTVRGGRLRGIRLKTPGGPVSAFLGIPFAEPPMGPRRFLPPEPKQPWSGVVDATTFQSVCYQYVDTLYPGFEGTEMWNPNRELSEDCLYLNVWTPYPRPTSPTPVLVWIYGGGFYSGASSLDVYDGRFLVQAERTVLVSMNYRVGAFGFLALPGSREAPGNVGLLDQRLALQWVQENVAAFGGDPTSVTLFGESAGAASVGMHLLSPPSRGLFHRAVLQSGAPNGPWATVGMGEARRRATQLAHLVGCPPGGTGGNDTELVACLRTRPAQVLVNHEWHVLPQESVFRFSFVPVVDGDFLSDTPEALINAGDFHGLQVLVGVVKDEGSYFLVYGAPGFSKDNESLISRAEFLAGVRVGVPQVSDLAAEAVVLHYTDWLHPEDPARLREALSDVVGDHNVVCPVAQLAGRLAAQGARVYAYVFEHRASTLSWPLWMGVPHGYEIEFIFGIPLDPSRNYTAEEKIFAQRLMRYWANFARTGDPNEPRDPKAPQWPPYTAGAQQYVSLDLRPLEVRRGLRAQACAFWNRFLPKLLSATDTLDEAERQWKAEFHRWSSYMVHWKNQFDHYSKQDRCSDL
T1 sequence (P56817 whole entry): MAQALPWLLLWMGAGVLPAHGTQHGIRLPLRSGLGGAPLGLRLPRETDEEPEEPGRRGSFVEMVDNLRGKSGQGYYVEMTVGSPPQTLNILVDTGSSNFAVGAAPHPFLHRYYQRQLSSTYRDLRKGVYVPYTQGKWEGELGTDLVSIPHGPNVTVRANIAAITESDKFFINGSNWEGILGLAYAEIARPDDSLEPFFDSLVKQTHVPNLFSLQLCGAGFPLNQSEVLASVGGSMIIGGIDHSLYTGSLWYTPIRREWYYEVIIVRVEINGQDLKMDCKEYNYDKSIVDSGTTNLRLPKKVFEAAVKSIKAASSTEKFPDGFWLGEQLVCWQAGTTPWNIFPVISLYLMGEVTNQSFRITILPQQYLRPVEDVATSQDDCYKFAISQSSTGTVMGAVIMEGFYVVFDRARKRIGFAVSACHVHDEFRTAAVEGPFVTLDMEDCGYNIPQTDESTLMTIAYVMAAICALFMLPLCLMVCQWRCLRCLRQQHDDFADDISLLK
Sequence of Cholinesterase (P06276 whole entry): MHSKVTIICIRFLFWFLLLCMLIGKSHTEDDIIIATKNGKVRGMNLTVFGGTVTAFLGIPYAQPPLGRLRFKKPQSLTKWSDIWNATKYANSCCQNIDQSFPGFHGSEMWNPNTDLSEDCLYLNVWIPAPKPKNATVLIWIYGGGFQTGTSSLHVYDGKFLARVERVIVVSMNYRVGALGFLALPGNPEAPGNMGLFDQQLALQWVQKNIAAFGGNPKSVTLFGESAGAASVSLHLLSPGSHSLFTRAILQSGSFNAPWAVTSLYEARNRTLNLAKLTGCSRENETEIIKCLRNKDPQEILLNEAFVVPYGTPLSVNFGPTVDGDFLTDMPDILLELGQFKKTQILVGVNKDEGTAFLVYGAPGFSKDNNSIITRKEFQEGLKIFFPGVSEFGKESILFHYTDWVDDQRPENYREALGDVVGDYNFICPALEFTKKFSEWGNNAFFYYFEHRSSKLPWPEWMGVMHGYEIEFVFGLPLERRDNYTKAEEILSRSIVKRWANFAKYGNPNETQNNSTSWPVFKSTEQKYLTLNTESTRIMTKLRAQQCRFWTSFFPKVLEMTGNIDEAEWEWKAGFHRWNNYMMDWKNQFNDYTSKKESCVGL

In general, inhibition refers to how much of the control response was suppressed. By IC50 is commonly meant the concentration at which inhibition is half-maximal. A higher IC50 goes with weaker potency in that assay. As to `c1ccc2c(c1)Cc1c-2nc2ccccc2c1NCCCCCCCNc1c2c(nc3ccccc13)-c1ccccc1C2`, the inhibition at Beta-secretase 1 [1] was determined as 27%. Also, the IC50 against Acetylcholinesterase [2] stood at 455 nM; against Cholinesterase, 28.6 nM; against Beta-secretase 1 [3] it was 400 nM.

`O=c1c2ccc(OCCCCCCCNc3c4c(nc5ccccc35)CCCC4)cc2oc2ncccc12`: the IC50 against Acetylcholinesterase [2] is 283 nM; at Cholinesterase, 101 nM.

The Ki is the equilibrium dissociation constant of an inhibitor or competing ligand from its target. With `Clc1ccc2c(NCCCCCCCNc3c4c(nc5ccccc35)-c3ccccc3C4)c3c(nc2c1)CCCC3`, the inhibition at Beta-secretase 1 [1] stood at 27%. At Acetylcholinesterase [4], the Ki is 1.01 nM. Moreover, the IC50 on Acetylcholinesterase [2] was determined as 1.05 nM; on Cholinesterase it was 63.7 nM; on Beta-secretase 1 [3], 1000 nM.

In the case of `Clc1ccc2c(NCCCCCCCOc3cccc(-c4cc5ccccc5o4)c3)c3c(nc2c1)CCCC3`, the IC50 on Acetylcholinesterase [2] is 258 nM; against Cholinesterase it was 41.4 nM.

With `c1ccc2c(c1)Cc1c-2nc2ccccc2c1NCCCCCCCNc1c2c(nc3ccccc13)CCCC2`, the inhibition on Beta-secretase 1 [1] was determined as 27%. Also, the concentration for half-maximal inhibition (IC50) at Acetylcholinesterase [2] came out at 13.9 nM; against Cholinesterase, 24.8 nM.

With `c1ccc2c(NCCCCCCCN3CCOCC3)c3c(nc2c1)CCCC3`, the 50% inhibitory concentration (IC50) turned out to be 44.5 nM against Acetylcholinesterase [2] and 90.5 nM at Cholinesterase.

For `c1ccc2c(NCCCCCCCCCN3CCOCC3)c3c(nc2c1)CCCC3`, the IC50 was determined as 34 nM on Acetylcholinesterase [2] and 38.1 nM at Cholinesterase.

Turning to `Clc1ccc2c(NCCCCCCCOc3ccc(-c4cc5ccccc5o4)cc3)c3c(nc2c1)CCCC3`, the figures for the IC50 against Acetylcholinesterase [2] and on Cholinesterase were 310 nM and 7280 nM, respectively.

`c1ccc2c(NCCCCCCN3CCOCC3)c3c(nc2c1)CCCC3`: the 50% inhibitory concentration (IC50) against Acetylcholinesterase [2] was determined as 68.9 nM; against Cholinesterase, 101 nM.

Turning to `c1ccc2c(NCCCCCCCCCCN3CCOCC3)c3c(nc2c1)CCCC3`, the values for the IC50 against Acetylcholinesterase [2] and against Cholinesterase were 28.4 nM and 14.7 nM, respectively.

Turning to `Clc1ccc2c(NCCCCCCCNc3c4c(nc5cc(Cl)ccc35)-c3ccccc3C4)c3c(nc2c1)CCCC3`, the results for the IC50 against Acetylcholinesterase [2] and at Cholinesterase were 12.1 nM and 1660 nM, respectively.

On to `c1ccc2c(NCCCCCCCCN3CCOCC3)c3c(nc2c1)CCCC3`, for which the IC50 against Acetylcholinesterase [2] came out at 16.5 nM; at Cholinesterase, 42.8 nM.
